This is an account of results in ChEMBL document CHEMBL1201862, “PubChem BioAssay data set” (2004).

Some test systems named below: HOP-92; NCI-H522; HCT-15; UACC-257; CAKI-1; HCT-116; COLO 205; OVCAR-8; OVCAR-4; SF-268; MDA-MB-231; RPMI-8226; HOP-62; SK-MEL-5; M14; A498; IGROV-1; MCF7; SR.
What all share (experiment): inhibition of tumour cell growth, NCI panel, 48 h

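Assay format: 96-well plates, 48-hour exposure. GI50 = concentration required for 50% inhibition of growth.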 Active and inactive are the calls of the source. Cut-off read from the data, not from the text of the source: active = GI50 up to about 1.1 µM and inactive = higher.

On to `CC(=O)c1ccc2c(c1)N(CCCN1CCN(CCO)CC1)c1ccccc1C2`, for which the GI50 with HOP-92 is 12.9 µM (inactive); in the assay on NCI-H522 it was 16.3 µM (inactive); in the assay on HCT-15, 14.4 µM; in the assay with UACC-257 it was 5.78 µM (inactive); in the assay with CAKI-1 it was 13.6 µM (inactive); with HCT-116, 16.3 µM (inactive). Also, the GI50 in the assay on COLO 205 is 15.1 µM (inactive); in the assay on OVCAR-8, 16.7 µM (inactive); in the assay with OVCAR-4 it was 15.1 µM (inactive); with SF-268, 17.8 µM (inactive); with MDA-MB-231 it was 13.2 µM (inactive); in the assay with RPMI-8226, 12.9 µM (inactive). The GI50 was 15.3 µM (inactive) in the assay on HOP-62; 12.2 µM (inactive) in the assay on SK-MEL-5; 13.6 µM (inactive) in the assay with M14; 15.7 µM (inactive) with A498; 17.3 µM (inactive) in the assay on IGROV-1.

Regarding `CC(C)OC(=O)NNc1cc(Cl)ccc1Cl`, the GI50 is 34.8 µM (inactive) with HOP-92; 57.9 µM (inactive) in the assay on MCF7; 31.5 µM (inactive) in the assay on NCI-H522; 91.2 µM in the assay with HCT-15; 39.7 µM (inactive) in the assay on UACC-257; 79.6 µM (inactive) in the assay with CAKI-1. For the same compound, the GI50 in the assay on HCT-116 was 73.3 µM (inactive); with COLO 205, > 100 µM (inactive); in the assay with OVCAR-8, > 100 µM (inactive); in the assay with SF-268, 44.8 µM (inactive); in the assay on MDA-MB-231, > 100 µM (inactive); with RPMI-8226 it was 44.5 µM (inactive). The GI50 with HOP-62 was > 100 µM (inactive); with SK-MEL-5, 39.4 µM (inactive); with M14, > 100 µM (inactive); in the assay on A498, 24.3 µM (inactive); in the assay with IGROV-1, 55.5 µM (inactive).

Regarding `O=C(O)C12CCC(CC1=O)C2` (stereo unspecified), the GI50 was > 100 µM (inactive) in the assay with HOP-92; > 100 µM (inactive) in the assay on MCF7; > 100 µM (inactive) in the assay with NCI-H522; over 100 µM in the assay on HCT-15; > 100 µM (inactive) in the assay on UACC-257; > 100 µM (inactive) in the assay on CAKI-1. Moreover, the GI50 in the assay with COLO 205, in the assay with OVCAR-8, in the assay with OVCAR-4, in the assay on SF-268, in the assay on RPMI-8226 and in the assay with HOP-62 was > 100 µM (inactive) each time. The GI50 in the assay with SK-MEL-5, in the assay on M14, with SR and with IGROV-1 was > 100 µM (inactive) throughout.

`Cc1ccc(C)n2c1nc1ccccc12`: the GI50 with HOP-92 was > 100 µM (inactive); in the assay with MCF7, > 100 µM (inactive); with HCT-15, over 100 µM; in the assay on UACC-257, > 100 µM (inactive); in the assay on HCT-116, > 10 µM (inactive); with COLO 205, > 100 µM (inactive). The GI50 was > 100 µM (inactive) with OVCAR-8; > 100 µM (inactive) in the assay on SF-268; > 100 µM (inactive) with RPMI-8226; 85.5 µM (inactive) with HOP-62; 82.8 µM (inactive) in the assay on SK-MEL-5; > 100 µM (inactive) with M14. Also, the GI50 was 1.46 µM (inactive) with A498, > 100 µM (inactive) in the assay with SR and > 100 µM (inactive) in the assay on IGROV-1.

For `COc1ccc(CNc2cnc3cc(N)ccc3n2)cc1OC`, the GI50 was > 100 µM (inactive) in the assay on NCI-H522; over 100 µM in the assay with HCT-15; > 100 µM (inactive) in the assay with UACC-257; > 100 µM (inactive) in the assay on CAKI-1; > 100 µM (inactive) in the assay on HCT-116; > 100 µM (inactive) in the assay with COLO 205. The GI50 with OVCAR-8, in the assay on OVCAR-4, in the assay on SF-268, in the assay on RPMI-8226, in the assay on HOP-62 and in the assay with SK-MEL-5 was > 100 µM (inactive) each time. In addition, the GI50 in the assay on M14 and in the assay on SR was > 100 µM (inactive) throughout.

For the compound `C#CCSc1nc(N)c2ncn(C3OC(COP(=O)(O)O)C(O)C3O)c2n1` (stereo unspecified), the GI50 was > 239 µM (inactive) with HOP-92; > 239 µM (inactive) in the assay on NCI-H522; over 239 µM in the assay on HCT-15; > 239 µM (inactive) in the assay with UACC-257; > 239 µM (inactive) in the assay on CAKI-1; > 239 µM (inactive) in the assay on HCT-116. Also, the GI50 in the assay on COLO 205, with OVCAR-8, with OVCAR-4, with SF-268, with RPMI-8226 and in the assay with HOP-62 was > 239 µM (inactive) throughout. The GI50 with SK-MEL-5, in the assay on M14, in the assay with A498, in the assay on SR and in the assay with IGROV-1 was > 239 µM (inactive) in each case.

As to `Nc1ccc(C(=O)c2cn(CCN3CCOCC3)c3ccccc23)c2ccccc12`, the GI50 in the assay on MCF7 is 34 µM (inactive); in the assay on NCI-H522 it was 21 µM (inactive); with HCT-15 it was 18.2 µM; with UACC-257, 45.6 µM (inactive); in the assay with CAKI-1, 62.8 µM (inactive); in the assay on HCT-116, 31.7 µM (inactive). The GI50 was 24.8 µM (inactive) in the assay with COLO 205; 20.2 µM (inactive) with OVCAR-8; 33 µM (inactive) in the assay on OVCAR-4; 32.6 µM (inactive) with SF-268; 26.5 µM (inactive) in the assay on RPMI-8226; 83.4 µM (inactive) in the assay with HOP-62. Moreover, the GI50 in the assay with SK-MEL-5 is 20.7 µM (inactive); with M14, 44.6 µM (inactive); with A498, 65.6 µM (inactive); in the assay with SR, 22.9 µM (inactive); in the assay with IGROV-1, 16.1 µM (inactive).

For `O=C(O)/C=C/n1c2ccccc2c(=O)c2ccccc21`, the GI50 in the assay on NCI-H522 was > 100 µM (inactive); in the assay with HCT-15, over 100 µM; in the assay with UACC-257, > 100 µM (inactive); in the assay with CAKI-1, > 100 µM (inactive); in the assay with HCT-116, > 100 µM (inactive); in the assay on COLO 205 it was > 100 µM (inactive). The GI50 with OVCAR-8, with OVCAR-4, in the assay on SF-268, with RPMI-8226, with HOP-62 and in the assay on M14 was > 100 µM (inactive) each time. Besides, the GI50 with A498, in the assay on SR and with IGROV-1 was > 100 µM (inactive) each time.

Regarding `C[C@]12CC[C@H]3[C@@H](CC[C@]4(O)C[C@@H](O)CC[C@]34C=O)[C@@]1(O)CC[C@@H]2C1=CC(=O)OC1` [STROPHANTHIDIN], the GI50 in the assay on HOP-92 was 1.25 µM (inactive); with NCI-H522, 0.0942 µM (active); with HCT-15 it was 0.413 µM; with UACC-257, 0.766 µM (active); in the assay on CAKI-1, 0.19 µM (active); in the assay on HCT-116, 0.259 µM (active). Also, the GI50 in the assay on COLO 205 was 1.36 µM (inactive); in the assay on OVCAR-8, 0.498 µM (active); in the assay with OVCAR-4 it was 0.298 µM (active); in the assay on SF-268, 0.397 µM (active); in the assay on MDA-MB-231, 2.65 µM (inactive); in the assay with RPMI-8226, 0.506 µM (active). In addition, the GI50 with HOP-62 is 0.159 µM (active); in the assay with SK-MEL-5, 0.288 µM (active); in the assay on M14, 1.07 µM (active); in the assay with A498, 0.562 µM (active); in the assay on SR it was 0.386 µM (active); in the assay with IGROV-1 it was 0.453 µM (active).

For `CC1CC(N2CCOCC2)=Nc2ccccc2N1C` (stereo unspecified), the GI50 in the assay on NCI-H522 was 98.9 µM (inactive); with HCT-15, over 100 µM; in the assay on UACC-257, > 100 µM (inactive); in the assay with CAKI-1, > 100 µM (inactive); with HCT-116, > 100 µM (inactive); in the assay with COLO 205, > 100 µM (inactive). Besides, the GI50 in the assay with OVCAR-8, with OVCAR-4, with SF-268, in the assay on MDA-MB-231, in the assay on RPMI-8226 and in the assay with HOP-62 was > 100 µM (inactive) in each case. The GI50 in the assay with SK-MEL-5, with M14, in the assay on A498 and in the assay on IGROV-1 was > 100 µM (inactive) each time.

As for `CCOC(=O)c1c2c(n(-c3ccc(OC)cc3)c1C)C(=O)C(=O)c1ccccc1-2`, the GI50 was 1.85 µM (inactive) in the assay on HOP-92; 0.693 µM (active) with MCF7; 2.71 µM (inactive) in the assay on NCI-H522; 3.65 µM in the assay with HCT-15; 0.491 µM (active) with UACC-257; 1.42 µM (inactive) in the assay with CAKI-1. In addition, the GI50 with HCT-116 is 1.33 µM (inactive); with COLO 205 it was 2.2 µM (inactive); with OVCAR-8, 0.687 µM (active); in the assay with OVCAR-4, 0.624 µM (active); with SF-268 it was 1.64 µM (inactive); in the assay with MDA-MB-231 it was 1.29 µM (inactive). Further, the GI50 in the assay with RPMI-8226 is 0.647 µM (active); in the assay on HOP-62 it was 1.78 µM (inactive); in the assay on SK-MEL-5, 1.06 µM (active); in the assay with M14, 1.59 µM (inactive); in the assay with IGROV-1 it was 2.52 µM (inactive).

Regarding `CCOC(=O)C1=C(O)C(=O)c2cc(OC)ccc2C1=O`, the GI50 with HOP-92 was > 100 µM (inactive); with NCI-H522, 55.7 µM (inactive); in the assay with HCT-15, over 100 µM; with UACC-257, 35.1 µM (inactive); with CAKI-1, > 100 µM (inactive); in the assay on HCT-116, 95.5 µM (inactive). Also, the GI50 with COLO 205, with OVCAR-8, with OVCAR-4, in the assay on SF-268, with RPMI-8226 and in the assay with HOP-62 was > 100 µM (inactive) throughout. The GI50 in the assay on SK-MEL-5 was 49.1 µM (inactive); in the assay on M14 it was > 100 µM (inactive); in the assay on A498 it was > 100 µM (inactive); in the assay with SR, > 100 µM (inactive); in the assay on IGROV-1 it was > 100 µM (inactive).
